No end group written: not given here.
Legend:
S. pneumoniae AI14 = experiment: MIC against clinical S. pneumoniae isolate AI14; type: cell-based, Streptococcus pneumoniae; settings: 50% blood added
Method: (§1) Minimum Inhibitory Concentrations (MICs) were determined according to previously published protocol^31. A stock solution of the antibiotics tested was first suspended in 50% acetonitrile (ACN) at a concentration 640 μg/mL. This stock was subsequently diluted 2-fold until a final concentration 0.156 μg/mL was reached. Subsequently, 10 μl of each dilution was placed into a well on a 96 well microtiter plate. M. luteus ATCC 10240, S. pneumoniae, and B. subtilis PY79 were grown overnight in THyex at 37° C. Cultures were diluted in the morning to 0.1 OD600 and allowed to grow to 0.6 OD600. This culture was diluted a 100-fold in fresh THyex media and then 400 μl of this culture was added to 10 mL of fresh THyex. The suspension contains approximately 10^5 colony forming units (CFUs). The bacterial suspension (190 μL) was added to each well containing 10 μL of antibiotic suspension or solvent blank. […] Following the 15 minute pretreatment, 190 μL was added to each well as described above. The MIC is described as the […] concentration of antibiotic that prevented visible growth after 24 hours.
(§2) Selective activity and stability of analogs: Several core peptide mutants are provided that have improved activity against our ATCC strain of S. pneumoniae. […]

C. accolens KPL 1818 = experiment: MIC/MLC assay against C. accolens KPL 1818; type: cell-based; settings: THyex broth with 1% Tween 80
S. aureus ATCC 25923 = experiment: MIC/MLC assay against S. aureus; type: cell-based, Staphylococcus aureus; settings: Table 11
S. pneumoniae ATCC 27336 = type: cell-based, Streptococcus pneumoniae; settings: Table 11
Method: as §1, with “hours. […]” for “hours.”

S. pneumoniae AI16 = experiment: MIC against clinical S. pneumoniae isolate AI16; type: cell-based, Streptococcus pneumoniae; settings: 50% blood added
Method: as §1, §2

S. pneumoniae AI8 = experiment: MIC against clinical S. pneumoniae isolate AI8; type: cell-based, Streptococcus pneumoniae; settings: 50% blood added
Method: as §1, §2

C. accolens ATCC 49725 = experiment: MIC/MLC assay against C. accolens ATCC 49725; type: cell-based; settings: THyex broth with 1% Tween 80
S. pneumoniae AI11 = experiment: MIC against clinical S. pneumoniae isolate AI11; type: cell-based, Streptococcus pneumoniae; settings: 50% blood added
Method: as §1, §2

M. luteus ATCC 10240 [1] = type: cell-based, Micrococcus luteus; settings: Table 11
Method: as §1
FIG. 11 illustrates the bioactivity of various core peptide mutants of mutacin 1130. The activity of the core mutant peptides is expressed as a ratio of the area of the zone of inhibition of each mutant strain to the area of the zone of inhibition of the wild-type strain against indicator strain of Micrococcus luteus. […] The deferred antagonism assay is an overlay assay of the indicator strain onto plates containing heat killed colonies of the mutacin producer strain after growing overnight. Core peptide mutants having inhibitory activity were isolated and the purified products were further evaluated by a standard minimum inhibitory concentration (MIC) assay.

S. pneumoniae AI17 = experiment: MIC against clinical S. pneumoniae isolate AI17; type: cell-based, Streptococcus pneumoniae; settings: 50% blood added
Method: as §1, §2

M. luteus ATCC 10240 [2] = experiment: Deferred antagonism (overlay) assay, zone of inhibition; type: cell-based, Micrococcus luteus; settings: relative to wild-type strain
Method: The deferred antagonism assay was performed as previously described^39. S. mutans strains were grown overnight in THyex broth at 37° C. The cultures were diluted to 0.1 OD OD600 and grown to mid-logarithmic phase before diluting to 0.05 OD600. Then, 2 μl of the cultures were spotted on THyex plates in duplicates of triplicates. The wild-type S. mutans JH1140 and S. mutans ΔmutA were used as positive and negative controls for activity, respectively. The plates were incubated for 18 hours in a candle jar at 37° C. After incubation, the strains were heat killed at 65° C. for 90 minutes. Fresh M. luteus grown overnight at 37° C. on THyex plates were used to inoculate pre-warmed THyex broth. The culture was grown to 0.6 to 0.8 OD before diluting to 0.2 OD600. The culture was further diluted 25-fold in melted (42° C.) THyex top agar. Approximately 5 mL of the top agar solution was spread on the heat killed bioassay plates and allowed to cool for 10 minutes. The plates were then placed in the incubator (at 37° C.) for 18 hours.
Streptococcus mutans ATCC 55676 (wild-type) and the mutants that were at an OD600 of 0.2 were spotted in triplicates on a pre-warmed THyex agar plate (150×15 mm) and allowed to dry. This assay was performed in this manner to ensure that each sample had the same colony size for comparing zones of inhibition. The plate was incubated for 24 hours then placed in an oven at 50° C. for thirty minutes to kill the bacteria before the indicator strain was overlaid. Heat killing the bacteria prevents any further antimicrobial compound production so that results seen are from single day incubation. Zone diameter was measured in millimeters across the plate and compared to wild-type (i.e. zone I for ATCC compared to zone I of Trp4Ala, etc.).

B. subtilis PY79 cells = experiment: Confocal microscopy localization of fluorescein labeled peptides; type: cell-based, Bacillus subtilis; settings: 10 μg/mL, 15 minutes
Method: B. subtilis PY79 was grown and treated with fluorescein labeled peptide as previously described^39. A fresh plate of B. subtilis was used to inoculate THyex broth and incubated approximately 16 hours at 37° C. The culture was diluted 20-fold and placed back in the incubator for 3 hours at 37° C. Then, 100 μl of the culture was incubated with the antibiotic (10 μg/mL) for 15 minutes. The cells were pelleted and resuspended in 100 μl of phosphate buffer solution (PBS). The wash step was repeated three times before fixing with 1.6% formaldehyde in PBS. After fixation the cells were washed with PBS three more times and the remaining pellet was suspended in 50 μL of PBS. The sample (30 μL) was added to a slide and observed using an Olympus confocal microscope with a 100×/0.90 dry objective. A 488 nm argon laser was used to excite the fluorophore. For the competition assay, the bacterial culture was initially incubated with mu1140-COOH or native mutacin 1140 at a concentration of 10 μg/mL for 15 minutes, washed, and resuspended in fresh media. 10 μg/mL of fluorescein labeled nisin was then added for 15 minutes, before following the wash protocol previously stated.

Substance	MIC S. pneumoniae AI14 (S. pneumoniae AI14)	C. accolens KPL 1818 MIC (C. accolens KPL 1818)	C. accolens KPL 1818 MLC (C. accolens KPL 1818)	S. aureus ATCC 25923 MIC (S. aureus ATCC 25923)	S. aureus ATCC 25923 MLC (S. aureus ATCC 25923)	S. pneumonia ATCC 27336 MIC (S. pneumoniae ATCC 27336)	S. pneumonia ATCC 27336 MLC (S. pneumoniae ATCC 27336)	MIC S. pneumoniae AI16 (S. pneumoniae AI16)	MIC S. pneumoniae AI8 (S. pneumoniae AI8)	C. accolens ATCC 49725 MIC (C. accolens ATCC 49725)	C. accolens ATCC 49725 MLC (C. accolens ATCC 49725)	MIC S. pneumoniae AI11 (S. pneumoniae AI11)	M. luteus ATCC 10240 MIC (M. luteus ATCC 10240 [1])	M. luteus ATCC 10240 MLC (M. luteus ATCC 10240 [1])	MIC S. pneumoniae AI17 (S. pneumoniae AI17)	zone of inhibition / inhibitory activity in deferred antagonism assay (M. luteus ATCC 10240 [2])	in vivo localization pattern of fluorescein labeled peptide (B. subtilis PY79 cells)	in vivo localization pattern of fluorescein labeled peptide (B. subtilis PY79 cells; listed as Fluorescein conjugated nisin)
T14A: core peptide mutant of mutacin 1140, Threonine 14 replaced by Alanine (FKSWSLCTPGCARAGSFNSYCC; UniProt O68586 42-63, looked up, variant T14A) [Mutant T14A]	2 micrograms per milliliter	0.5 micrograms per milliliter	2 micrograms per milliliter	8 micrograms per milliliter	16 micrograms per milliliter	0.5 micrograms per milliliter	0.5 micrograms per milliliter	8 micrograms per milliliter	8 micrograms per milliliter	0.25 micrograms per milliliter	0.25 micrograms per milliliter	4 micrograms per milliliter	0.125 micrograms per milliliter	0.125 micrograms per milliliter	8 micrograms per milliliter	no change in activity	–	–
T14G: core peptide mutant of mutacin 1140, Threonine 14 replaced by Glycine (FKSWSLCTPGCARGGSFNSYCC; not fully specified; ends and bridges not checked; UniProt O68586 42-63, looked up, variant T14G) [Mutant T14G]	1 micrograms per milliliter	0.25 micrograms per milliliter	0.5 micrograms per milliliter	>32 micrograms per milliliter	>32 micrograms per milliliter	0.5 micrograms per milliliter	0.5 micrograms per milliliter	8 micrograms per milliliter	8 micrograms per milliliter	0.0625 micrograms per milliliter	0.0625 micrograms per milliliter	2 micrograms per milliliter	0.0625 micrograms per milliliter	0.0625 micrograms per milliliter	8 micrograms per milliliter	–	–	–
fluorescein labeled nisin: nisin containing a C-terminal conjugate of fluorescein (ITSISLCTPGCKTGALMGCNMKTATCHCSIHVSK-fluorescein; ends and bridges not checked; also: lantibiotic thioether (lanthionine) rings and dehydrated residues, places not given here; UniProt P13068 24-57, looked up)	–	–	–	–	–	–	–	–	–	–	–	–	–	–	–	–	large green patches on the cell surface	binds and abducts lipid II to form patches

Reference: US10577399B2, “Modified lantibiotics and methods of making and using the modified lantibiotics” (priority 2016, dated 2020)
